Test results from publication PMC3204160 (Journal of natural products, 2011).
Like-named read-outs stand apart in the source and are kept apart here.

Assays:
recombinant human HDAC1 = recombinant human HDAC1 (Homo sapiens, UniProt Q13547); assay: Two-step fluorogenic HDAC inhibition assay, HDAC1; assay type: biochemical; settings: for times less active against HDAC1 than against HDAC3/N-CoR2: natural/oxidized prodrug form, range given for HDAC1 and HDAC2 together
recombinant human HDAC2 = recombinant human HDAC2 (Homo sapiens, UniProt Q92769); assay: Two-step fluorogenic HDAC inhibition assay, HDAC2; assay type: biochemical; settings: for times less active against HDAC2 than against HDAC3/N-CoR2: natural/oxidized prodrug form, range given for HDAC1 and HDAC2 together
Chain of recombinant human HDAC2 (Q92769 whole entry): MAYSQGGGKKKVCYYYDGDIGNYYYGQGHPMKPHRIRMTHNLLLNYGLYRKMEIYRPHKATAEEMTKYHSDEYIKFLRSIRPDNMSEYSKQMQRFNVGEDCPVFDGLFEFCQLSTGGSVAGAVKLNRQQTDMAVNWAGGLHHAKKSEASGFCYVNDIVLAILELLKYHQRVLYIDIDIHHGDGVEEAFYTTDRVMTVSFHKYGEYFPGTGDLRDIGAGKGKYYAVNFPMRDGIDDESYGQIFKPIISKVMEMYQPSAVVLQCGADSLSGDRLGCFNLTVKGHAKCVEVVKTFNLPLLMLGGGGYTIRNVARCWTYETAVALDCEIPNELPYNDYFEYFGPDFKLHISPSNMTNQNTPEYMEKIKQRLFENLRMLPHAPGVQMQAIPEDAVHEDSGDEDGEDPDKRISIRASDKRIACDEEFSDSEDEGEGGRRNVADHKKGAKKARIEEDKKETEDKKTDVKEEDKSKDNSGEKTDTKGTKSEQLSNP

[1] = target: HDAC3 (in complex with N-CoR2) (Homo sapiens, UniProt O15379); assay: biochemical
Chain of HDAC3 (in complex with N-CoR2) (O15379 whole entry): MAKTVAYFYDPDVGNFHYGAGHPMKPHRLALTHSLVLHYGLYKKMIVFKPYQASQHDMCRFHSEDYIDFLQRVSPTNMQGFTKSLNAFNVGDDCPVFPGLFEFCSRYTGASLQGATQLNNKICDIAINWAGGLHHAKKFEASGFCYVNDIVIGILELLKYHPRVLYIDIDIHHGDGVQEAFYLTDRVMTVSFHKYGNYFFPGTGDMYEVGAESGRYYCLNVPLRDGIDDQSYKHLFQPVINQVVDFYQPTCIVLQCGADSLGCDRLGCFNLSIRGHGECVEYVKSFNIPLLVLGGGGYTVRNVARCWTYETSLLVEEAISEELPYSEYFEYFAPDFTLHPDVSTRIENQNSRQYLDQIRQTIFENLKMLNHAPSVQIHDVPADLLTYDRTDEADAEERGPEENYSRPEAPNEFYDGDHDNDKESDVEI
Chain of HDAC3 (in complex with N-CoR2) (Q9Y618 395-489 partner limits assumed): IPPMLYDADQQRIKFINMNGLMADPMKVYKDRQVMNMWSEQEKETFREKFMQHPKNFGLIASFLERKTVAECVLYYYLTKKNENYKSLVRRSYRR

recombinant human HDAC4 = recombinant human HDAC4 (Homo sapiens, UniProt P56524); assay: biochemical; assay type: biochemical
Chain of recombinant human HDAC4 (P56524 whole entry): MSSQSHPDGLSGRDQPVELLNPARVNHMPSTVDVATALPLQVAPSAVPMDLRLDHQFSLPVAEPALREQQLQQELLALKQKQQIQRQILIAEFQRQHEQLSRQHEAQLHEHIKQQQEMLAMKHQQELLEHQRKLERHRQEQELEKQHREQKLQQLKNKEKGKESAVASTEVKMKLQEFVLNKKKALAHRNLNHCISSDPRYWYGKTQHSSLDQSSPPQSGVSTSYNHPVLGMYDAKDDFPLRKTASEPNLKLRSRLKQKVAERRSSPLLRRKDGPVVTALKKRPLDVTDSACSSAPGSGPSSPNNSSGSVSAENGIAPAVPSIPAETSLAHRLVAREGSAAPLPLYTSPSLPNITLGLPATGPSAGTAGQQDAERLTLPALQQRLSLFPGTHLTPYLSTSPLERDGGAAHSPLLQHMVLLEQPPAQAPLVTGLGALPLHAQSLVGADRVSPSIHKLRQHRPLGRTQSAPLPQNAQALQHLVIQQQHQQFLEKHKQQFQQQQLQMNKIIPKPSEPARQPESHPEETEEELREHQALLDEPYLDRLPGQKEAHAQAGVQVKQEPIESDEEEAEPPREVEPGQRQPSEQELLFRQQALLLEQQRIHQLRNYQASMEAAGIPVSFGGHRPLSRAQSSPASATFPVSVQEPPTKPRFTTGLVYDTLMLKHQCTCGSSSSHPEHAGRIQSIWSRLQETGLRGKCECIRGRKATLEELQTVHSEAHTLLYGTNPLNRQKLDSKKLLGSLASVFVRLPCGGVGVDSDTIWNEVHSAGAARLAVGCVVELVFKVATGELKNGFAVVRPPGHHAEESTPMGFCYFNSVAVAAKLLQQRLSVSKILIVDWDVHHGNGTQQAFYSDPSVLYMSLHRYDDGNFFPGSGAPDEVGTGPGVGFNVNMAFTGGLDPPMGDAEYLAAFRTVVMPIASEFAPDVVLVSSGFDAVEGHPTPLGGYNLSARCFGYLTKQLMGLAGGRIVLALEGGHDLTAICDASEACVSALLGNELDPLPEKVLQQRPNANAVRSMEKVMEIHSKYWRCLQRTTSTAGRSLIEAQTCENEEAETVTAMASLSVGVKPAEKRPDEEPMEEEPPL

recombinant human HDAC6 = target: T1, recombinant human HDAC6 (Homo sapiens, UniProt Q9UBN7); assay: biochemical; assay type: biochemical; settings: for potency towards HDAC6, times less than to HDAC1–3: reduced form
T1 sequence (Q9UBN7 1-1215): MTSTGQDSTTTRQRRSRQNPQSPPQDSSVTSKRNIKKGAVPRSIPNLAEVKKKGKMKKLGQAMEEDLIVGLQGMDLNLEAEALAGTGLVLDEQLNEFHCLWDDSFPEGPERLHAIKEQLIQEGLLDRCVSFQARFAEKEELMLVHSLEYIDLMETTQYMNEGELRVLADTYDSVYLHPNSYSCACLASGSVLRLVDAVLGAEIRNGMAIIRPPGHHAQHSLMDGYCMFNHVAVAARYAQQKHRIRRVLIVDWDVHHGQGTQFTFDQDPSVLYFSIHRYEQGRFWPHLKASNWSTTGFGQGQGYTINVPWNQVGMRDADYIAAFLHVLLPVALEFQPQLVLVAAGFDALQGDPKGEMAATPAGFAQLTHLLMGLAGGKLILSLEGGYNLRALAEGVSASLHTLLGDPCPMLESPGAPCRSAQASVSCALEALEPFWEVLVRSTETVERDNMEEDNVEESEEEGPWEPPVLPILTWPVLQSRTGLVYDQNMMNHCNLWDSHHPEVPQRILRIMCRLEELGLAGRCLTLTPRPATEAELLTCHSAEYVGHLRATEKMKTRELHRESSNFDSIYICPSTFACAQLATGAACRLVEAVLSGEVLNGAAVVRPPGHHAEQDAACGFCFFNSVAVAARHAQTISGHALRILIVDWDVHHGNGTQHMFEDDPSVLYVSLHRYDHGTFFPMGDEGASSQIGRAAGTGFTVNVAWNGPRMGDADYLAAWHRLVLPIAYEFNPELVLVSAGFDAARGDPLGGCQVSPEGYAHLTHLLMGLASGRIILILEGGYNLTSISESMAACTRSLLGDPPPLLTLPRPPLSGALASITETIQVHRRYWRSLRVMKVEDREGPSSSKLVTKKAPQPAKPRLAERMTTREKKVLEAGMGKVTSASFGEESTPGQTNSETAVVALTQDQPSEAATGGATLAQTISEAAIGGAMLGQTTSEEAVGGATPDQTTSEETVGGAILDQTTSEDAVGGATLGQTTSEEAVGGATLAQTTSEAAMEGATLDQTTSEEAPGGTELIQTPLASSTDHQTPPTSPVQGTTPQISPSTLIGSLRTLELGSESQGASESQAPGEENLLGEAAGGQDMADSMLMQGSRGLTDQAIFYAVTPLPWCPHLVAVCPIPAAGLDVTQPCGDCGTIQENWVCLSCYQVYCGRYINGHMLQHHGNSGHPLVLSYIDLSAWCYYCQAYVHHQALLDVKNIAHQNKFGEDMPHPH

recombinant human HDAC7 = target: T2, recombinant human HDAC7 (Homo sapiens, UniProt Q8WUI4); assay: biochemical
T2 sequence (Q8WUI4 1-952): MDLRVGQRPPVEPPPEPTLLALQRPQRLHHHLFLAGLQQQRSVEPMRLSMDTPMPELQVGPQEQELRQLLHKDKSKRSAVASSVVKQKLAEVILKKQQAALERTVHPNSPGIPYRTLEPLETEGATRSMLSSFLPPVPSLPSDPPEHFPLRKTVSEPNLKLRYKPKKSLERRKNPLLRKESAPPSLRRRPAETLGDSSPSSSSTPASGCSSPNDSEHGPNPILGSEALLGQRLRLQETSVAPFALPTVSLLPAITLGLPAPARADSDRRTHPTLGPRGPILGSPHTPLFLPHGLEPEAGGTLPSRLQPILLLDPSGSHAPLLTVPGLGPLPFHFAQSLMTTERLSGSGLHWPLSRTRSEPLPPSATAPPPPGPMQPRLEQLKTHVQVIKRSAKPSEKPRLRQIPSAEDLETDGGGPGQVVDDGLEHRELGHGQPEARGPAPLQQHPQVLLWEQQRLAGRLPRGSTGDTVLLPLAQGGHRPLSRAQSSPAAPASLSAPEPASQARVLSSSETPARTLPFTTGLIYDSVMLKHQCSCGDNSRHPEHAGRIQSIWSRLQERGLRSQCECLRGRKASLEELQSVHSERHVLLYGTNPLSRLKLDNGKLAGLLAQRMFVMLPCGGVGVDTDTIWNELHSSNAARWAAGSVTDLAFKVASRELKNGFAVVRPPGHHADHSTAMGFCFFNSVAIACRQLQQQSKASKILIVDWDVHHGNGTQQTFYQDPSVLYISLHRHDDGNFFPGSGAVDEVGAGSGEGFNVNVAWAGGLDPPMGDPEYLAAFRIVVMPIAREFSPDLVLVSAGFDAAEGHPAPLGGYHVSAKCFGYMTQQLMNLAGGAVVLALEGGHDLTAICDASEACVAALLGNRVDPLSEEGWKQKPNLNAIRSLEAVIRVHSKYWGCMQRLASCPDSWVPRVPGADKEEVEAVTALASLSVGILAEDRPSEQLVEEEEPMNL

recombinant human HDAC8 = target: T3, recombinant human HDAC8 (Homo sapiens, UniProt Q9BY41); assay: biochemical; assay type: biochemical
T3 sequence (Q9BY41 1-377): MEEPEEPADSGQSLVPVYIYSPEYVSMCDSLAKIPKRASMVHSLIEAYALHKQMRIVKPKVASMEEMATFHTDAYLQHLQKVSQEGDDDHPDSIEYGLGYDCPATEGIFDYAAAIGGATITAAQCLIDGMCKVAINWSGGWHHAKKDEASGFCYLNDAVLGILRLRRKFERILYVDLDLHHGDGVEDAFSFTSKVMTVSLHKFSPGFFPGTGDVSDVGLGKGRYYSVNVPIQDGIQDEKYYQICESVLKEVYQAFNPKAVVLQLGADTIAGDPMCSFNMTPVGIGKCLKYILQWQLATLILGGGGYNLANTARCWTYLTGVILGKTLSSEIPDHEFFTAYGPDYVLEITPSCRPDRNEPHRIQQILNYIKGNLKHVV

recombinant human HDAC9 = recombinant human HDAC9 (Homo sapiens, UniProt Q9UKV0); assay: biochemical
Chain of recombinant human HDAC9 (Q9UKV0 whole entry): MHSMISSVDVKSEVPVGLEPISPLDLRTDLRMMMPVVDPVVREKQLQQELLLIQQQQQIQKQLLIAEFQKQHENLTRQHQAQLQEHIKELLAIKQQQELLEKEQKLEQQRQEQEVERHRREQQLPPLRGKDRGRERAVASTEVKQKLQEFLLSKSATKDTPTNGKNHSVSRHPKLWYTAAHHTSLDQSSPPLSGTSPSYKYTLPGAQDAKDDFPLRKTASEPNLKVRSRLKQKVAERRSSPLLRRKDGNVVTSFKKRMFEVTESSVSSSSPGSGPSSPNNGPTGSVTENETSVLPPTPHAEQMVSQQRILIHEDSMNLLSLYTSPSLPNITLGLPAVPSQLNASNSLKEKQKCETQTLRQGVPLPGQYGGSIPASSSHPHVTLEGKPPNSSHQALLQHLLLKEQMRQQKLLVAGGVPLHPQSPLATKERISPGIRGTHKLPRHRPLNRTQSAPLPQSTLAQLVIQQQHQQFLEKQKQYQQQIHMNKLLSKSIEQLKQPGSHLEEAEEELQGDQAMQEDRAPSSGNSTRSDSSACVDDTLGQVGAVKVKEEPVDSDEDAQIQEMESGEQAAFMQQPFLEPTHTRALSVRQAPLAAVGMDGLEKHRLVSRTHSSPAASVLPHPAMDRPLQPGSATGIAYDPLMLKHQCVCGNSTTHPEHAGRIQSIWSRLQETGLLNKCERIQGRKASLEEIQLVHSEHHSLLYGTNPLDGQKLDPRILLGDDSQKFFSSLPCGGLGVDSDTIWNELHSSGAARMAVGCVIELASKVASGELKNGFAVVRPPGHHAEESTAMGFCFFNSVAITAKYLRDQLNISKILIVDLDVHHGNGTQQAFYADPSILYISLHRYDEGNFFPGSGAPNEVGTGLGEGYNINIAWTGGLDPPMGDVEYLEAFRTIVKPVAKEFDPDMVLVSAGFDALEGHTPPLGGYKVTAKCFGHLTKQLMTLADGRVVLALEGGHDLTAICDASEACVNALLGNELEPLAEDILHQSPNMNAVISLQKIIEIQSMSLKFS

[2] = tested on: NCI-60 human cancer cell lines; assay: NCI-60 anticancer drug screen and COMPARE analysis; assay type: cell-based; settings: for over 90% of the tested NCI-60 cell lines; five concentrations 10^−4 to 10^−8 M

Chain of recombinant human HDAC1 (Q13547 whole entry): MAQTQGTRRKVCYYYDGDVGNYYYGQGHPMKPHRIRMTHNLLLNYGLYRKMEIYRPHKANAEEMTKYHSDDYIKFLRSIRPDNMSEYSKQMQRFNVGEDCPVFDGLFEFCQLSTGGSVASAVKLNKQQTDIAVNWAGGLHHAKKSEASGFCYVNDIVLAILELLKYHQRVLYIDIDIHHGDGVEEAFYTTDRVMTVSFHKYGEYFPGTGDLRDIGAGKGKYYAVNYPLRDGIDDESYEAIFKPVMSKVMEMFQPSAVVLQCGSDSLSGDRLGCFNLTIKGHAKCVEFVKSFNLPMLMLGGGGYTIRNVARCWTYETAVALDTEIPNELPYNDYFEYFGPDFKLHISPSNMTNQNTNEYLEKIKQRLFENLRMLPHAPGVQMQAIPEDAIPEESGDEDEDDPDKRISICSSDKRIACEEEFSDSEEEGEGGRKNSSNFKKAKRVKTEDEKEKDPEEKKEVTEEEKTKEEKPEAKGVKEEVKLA

SMILES: CC[C@H](C)[C@H]1NC(=O)[C@H]2CSSCC/C=C/[C@H](CC(=O)N[C@H](CCSC)C(=O)N2)OC(=O)C[C@@H]1O [Compound 6, thailandepsin A]
- IC50 (recombinant human HDAC1): 0.014 µM
- times less active against HDAC1 than against HDAC3/N-CoR2 (recombinant human HDAC1): 80–450 times
- IC50 (recombinant human HDAC2): 0.0035 µM
- times less active against HDAC2 than against HDAC3/N-CoR2 (recombinant human HDAC2): 80–450 times
- IC50 [1]: 0.0048 µM
- IC50 (recombinant human HDAC4): 42 µM
- fold less potent against HDAC4 than 2* (recombinant human HDAC4): 40–90 fold
- IC50 (recombinant human HDAC6): 0.38 µM
- potency towards HDAC6, times less than to HDAC1–3 (recombinant human HDAC6): 30–100 times
- IC50 (recombinant human HDAC7): 11 µM
- IC50 (recombinant human HDAC8): 1.2 µM
- fold less potent against HDAC8 than 2* (recombinant human HDAC8): 40–90 fold
- inhibition of HDAC8, times weaker than the inhibition of HDAC1–3 (recombinant human HDAC8): 80–350 times
- IC50 (recombinant human HDAC9): 12 µM
- GI50 (growth inhibition) [2]: low nanomolar concentrations

SMILES: C/C=C1\NC(=O)[C@H]2CSSCC/C=C/[C@H](CC(=O)N[C@H](C(C)C)C(=O)N2)OC(=O)[C@H](C(C)C)NC1=O [Compound 2, FK228, reference compound]
- IC50 (recombinant human HDAC1): 0.0053 µM
- times less active against HDAC1 than against HDAC3/N-CoR2 (recombinant human HDAC1): 80–450 times
- times less active against HDAC2 than against HDAC3/N-CoR2 (recombinant human HDAC2): 80–450 times
- IC50 (recombinant human HDAC4): 0.47 µM
- potency towards HDAC6, times less than to HDAC1–3 (recombinant human HDAC6): 30–100 times
- IC50 (recombinant human HDAC7): 3.2 µM

SMILES: CCCC[C@H]1NC(=O)C[C@H]2/C=C/CCSSC[C@@H](NC1=O)C(=O)N[C@H]([C@@H](C)CC)[C@@H](O)CC(=O)O2 [Compound 7, thailandepsin B]
- times less active against HDAC1 than against HDAC3/N-CoR2 (recombinant human HDAC1): 80–450 times
- times less active against HDAC2 than against HDAC3/N-CoR2 (recombinant human HDAC2): 80–450 times
- potency towards HDAC6, times less than to HDAC1–3 (recombinant human HDAC6): 30–100 times
- inhibition of HDAC8, times weaker than the inhibition of HDAC1–3 (recombinant human HDAC8; reduced form): 80–350 times
- GI50 (growth inhibition) [2]: low nanomolar concentrations
